This is an account of results in publication PMC9966370, “Biological Evaluation and In Vitro Characterization of ADME Profile of In-House Pyrazolo[3,4-d]pyrimidines as Dual Tyrosine Kinase Inhibitors Active against Glioblastoma Multiforme” (Pharmaceutics, 2023).

A short description of series [1]: cytotoxicity on nontumoral healthy cells, MTT assay, HaCaT. The format is cell-based, human. Particulars: human, HaCaT keratinocytes, 72 h treatment.
Procedure: (§4) The protocol used to assess the cytotoxic effect on both healthy cell lines was the same described above for the antiproliferative assay. For both the antiproliferative and the cytotoxic assays, 3-(4,5-dimethylthiazol-2-yl)-2,5-diphenyltetrazolium bromide (MTT) was used to assess cell viability as previously described [20]. […] Afterward, formazan violet crystals were solubilized in 150 μL of isopropanol, and the absorbance was quantified at 570 nm using a Multiskan SkyHigh Microplate Spectrophotometer (ThermoFisher, Waltham, MA, USA). Cell viability was expressed as a percentage of DMSO-treated cells (controls), taken as 100%.
In series [2] the test system is keratinocytes HaCaT. Described as above. The format is cell-based, human. Particulars: 72 h treatment.
Procedure: as §4
The test system of series [3] is LN18 GBM cell line. Briefly: antiproliferative activity, MTT assay, LN18. Particulars: Homo sapiens, LN-18, 72 h treatment. The format is cell-based. The procedure: (§1) Cell-based assays were performed using four GBM cell lines, i.e., U-87, LN18, LN229, and DBTRG, cultured in Dulbecco’s modified Eagle medium (DMEM) (U-87, LN18, and LN229) or Roswell Park Memorial Institute medium (RPMI 1640) (DBTRG). Both media were implemented with 10% fetal bovine serum (FBS), 2 mM L-glutamine, and 10,000 units/mL penicillin/streptomycin at 37 °C in a 5% CO2 atmosphere. […] The final concentration of DMSO used never exceeded 0.5% v/v, and appropriate controls were always performed in each assay. […] These were cultured in DMEM supplemented with 10% FBS, 2 mM L-glutamine, and 10,000 units/mL penicillin/streptomycin at 37 °C in a 5% CO2 atmosphere. The protocol used to assess the cytotoxic effect on both healthy cell lines was the same described above for the antiproliferative assay. For both the antiproliferative and the cytotoxic assays, 3-(4,5-dimethylthiazol-2-yl)-2,5-diphenyltetrazolium bromide (MTT) was used to assess cell viability as previously described. Briefly, 150 μL of MTT (5 mg/mL in FBS-free culture medium) was added to each well, and the plates incubated for 4 h in a 5% CO2 atmosphere at 37 °C. Afterward, formazan violet crystals were solubilized in 150 μL of isopropanol, and the absorbance was quantified at 570 nm using a Multiskan SkyHigh Microplate Spectrophotometer (ThermoFisher, Waltham, MA, USA). Cell viability was expressed as a percentage of DMSO-treated cells (controls), taken as 100%. […] To support MTT data, cytotoxicity assays was always paralleled by a careful observation of cells under a phase-contrast light microscope, as described in USP 28 (United States Pharmacopeia edition 2005) as an alternative method. This analysis was performed by an expert operator blind to the treatment, and exemplificative photos representing the effects of compound 5 on LN229 and DBTRG cells are reported in Figures S2 and S3 (Supplementary Materials).

The subject of series [4] is DBTRG GBM cell line. The experiment in a line: antiproliferative activity, MTT assay, DBTRG. The format is cell-based. The settings on record: Homo sapiens, 72 h treatment. As to the method:
as §1

Series [5] concerns LN229 GBM cell line. Briefly: antiproliferative activity, MTT assay, LN229. The format is cell-based. Particulars: Homo sapiens, LN-229, 72 h treatment. The procedure:
as §1

For series [6], the system named is U-87 GBM cell line. Particulars: previously published; cited from earlier work.
Series [7] can be described thus: cytotoxicity on nontumoral healthy cells, MTT assay, FIBRO 2-93. The format is cell-based, human. Particulars: human, FIBRO 2-93 healthy fibroblasts, 72 h treatment, MTT.
Procedure: as §4
Series [8] concerns fibroblasts FIBRO 2-93. The description is as above. The format is cell-based, human.
Procedure: as §4
For series [9] the following is noted: HLM, previously published, cited from earlier work; for Metabolite Formation M1: M1 = M − HCl + O.
Series [10] relates to U-87 GBM cell line. The experiment in a line: antiproliferative activity, MTT assay, U-87. The format is cell-based. Particulars: Homo sapiens, 72 h treatment. As to the method: as §1
On the set-up of series [11]: method as in PMID 21443205. Particulars: previously published; cited from earlier work.
A short description of series [12]: PAMPA, BBB permeability. The format is in vitro ADME. Particulars: RT; for BBB membrane retention (MR%): 5 h, pH 7.4; for Papp at 5 h, 500 µM: pH 7.4, PAMPA. As to the method:
(§2) UV/LC–MS chromatographic analyses were carried out using an Agilent 1100 LC/MSD VL system (G1946C) purchased from Agilent Technologies (Palo Alto, CA, USA). […] The analysis began with 5% B (t = 0–1 min), increased to 95% (t = 1–10 min), maintained at 95% (t = 10–19 min), and finally returned to 5% […]. The analyses were performed at a flow rate of 0.6 mL/min, UV detection was monitored at 254 nm, and spectra were acquired over the scan range of m/z 100–1000 in both positive and negative modes.
(§3) The DMSO stock of each compound was diluted with phosphate buffer (PBS 25 mM, pH 7.4) to a final concentration of 500 µM in order to obtain the “donor”. For GI and BBB permeability, filters were coated with 10 µL of 1% w/v dodecane phosphatidylcholine solution or 5 µL of 10% w/v CHCl3/dodecane brain polar lipid solution. The donor (150 µL) was poured over the artificial membranes on the filter plate. DMSO/PBS (300 µL, 1:1 v/v) was then added to the acceptor wells. After assembling the sandwich plates, the experiments were run for 5 h at room temperature (RT). Lastly, the amount of compound passed though the artificial membranes was determined using the UV/LC–MS method described above. Apparent permeability (Papp) and membrane retention (MR%) were determined as previously described.

Series [13] has as its target T1, Abl (Homo sapiens, UniProt P00519).
T1 construct: purchased Promega (Madison, WI, USA)
Briefly: cell-free enzymatic assay (ADP-Glo), Abl. The format is biochemical. The settings on record: 30 µM ATP, 50 µM Abltide.
Procedure: (§5) The reactions were carried out in accordance with the manufacturer’s instructions, with minor modifications. The experiments were run using all substrates at least twice the concentration of apparent Km. […] All reactions were run out at 30 °C for 10 min with 10–50 ng of enzyme and 10 µL of 10% DMSO. Protein low-binding tubes were used to prevent peptide adsorption onto the plastic surface. To detect kinase activity, the ADP-Glo Kinase Assay (Promega, Madison, WI, USA) was used according to the manufacturer’s protocol. Into white 384-well plates, reactions were stopped for 50 min at RT by adding 10 µL of ADP-Glo Reagent (Promega, Madison, WI, USA). After 30 min, 20 µL of Detection Reagent (Promega, Madison, WI, USA) was added, and the reaction was read using a GloMax Discover microplate reader (Promega, Madison, WI, USA). […] Compounds analyzed were considered to act as ATP-competitive inhibitors.

Series [14] concerns the target T2, c-Src (Homo sapiens, UniProt P12931).
T2 construct: purchased Promega (Madison, WI, USA)
Briefly: cell-free enzymatic assay (ADP-Glo), c-Src. The format is biochemical.
Procedure: as §5

Series [15] in a line: metabolic stability assay in human liver microsomes. The settings on record: HLM 0.2 mg/mL, NADPH, 1 h, 37 °C. The format is in vitro ADME. As to the method:
as §2
Each DMSO compound solution was incubated for 1 h at 37 °C in the presence of 500 µL of PBS (25 mM, pH 7.4), human liver microsomal (HLM) proteins (0.2 mg/mL), and 10 mM NADPH solution in MgCl2 (48 mM). The reactions were stopped with 1.0 mL of cold ACN. The samples were centrifuged (4000 rpm for 10 min), and the supernatants were collected, dried under N2 flow, and suspended in 100 µL of methanol (MeOH). Parent drugs and metabolites were determined using the previously described HPLC/UV–MS method. The percentage metabolic stability was calculated by comparing the metabolized and unmetabolized compounds.

Series [16] in a line: PAMPA, GI permeability. The format is in vitro ADME. The settings on record: RT. The procedure:
as §2, §3

Where two headings read alike, the source gives them in different places. Marks after values point to notes of the source that are not given here.

T2 sequence (P12931 whole entry): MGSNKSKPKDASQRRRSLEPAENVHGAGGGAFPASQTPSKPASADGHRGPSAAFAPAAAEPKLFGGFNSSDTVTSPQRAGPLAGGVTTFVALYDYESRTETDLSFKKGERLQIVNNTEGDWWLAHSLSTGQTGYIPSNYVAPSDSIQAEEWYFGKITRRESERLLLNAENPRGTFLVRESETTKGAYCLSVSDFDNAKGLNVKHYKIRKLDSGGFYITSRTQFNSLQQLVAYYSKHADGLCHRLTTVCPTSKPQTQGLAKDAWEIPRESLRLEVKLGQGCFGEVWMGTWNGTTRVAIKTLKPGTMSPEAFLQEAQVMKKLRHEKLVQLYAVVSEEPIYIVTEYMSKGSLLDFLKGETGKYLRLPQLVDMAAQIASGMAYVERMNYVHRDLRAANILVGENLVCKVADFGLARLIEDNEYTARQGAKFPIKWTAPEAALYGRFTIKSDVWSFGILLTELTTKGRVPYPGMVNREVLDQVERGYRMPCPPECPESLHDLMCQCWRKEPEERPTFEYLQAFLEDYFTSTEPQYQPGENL
T1 sequence (P00519 whole entry): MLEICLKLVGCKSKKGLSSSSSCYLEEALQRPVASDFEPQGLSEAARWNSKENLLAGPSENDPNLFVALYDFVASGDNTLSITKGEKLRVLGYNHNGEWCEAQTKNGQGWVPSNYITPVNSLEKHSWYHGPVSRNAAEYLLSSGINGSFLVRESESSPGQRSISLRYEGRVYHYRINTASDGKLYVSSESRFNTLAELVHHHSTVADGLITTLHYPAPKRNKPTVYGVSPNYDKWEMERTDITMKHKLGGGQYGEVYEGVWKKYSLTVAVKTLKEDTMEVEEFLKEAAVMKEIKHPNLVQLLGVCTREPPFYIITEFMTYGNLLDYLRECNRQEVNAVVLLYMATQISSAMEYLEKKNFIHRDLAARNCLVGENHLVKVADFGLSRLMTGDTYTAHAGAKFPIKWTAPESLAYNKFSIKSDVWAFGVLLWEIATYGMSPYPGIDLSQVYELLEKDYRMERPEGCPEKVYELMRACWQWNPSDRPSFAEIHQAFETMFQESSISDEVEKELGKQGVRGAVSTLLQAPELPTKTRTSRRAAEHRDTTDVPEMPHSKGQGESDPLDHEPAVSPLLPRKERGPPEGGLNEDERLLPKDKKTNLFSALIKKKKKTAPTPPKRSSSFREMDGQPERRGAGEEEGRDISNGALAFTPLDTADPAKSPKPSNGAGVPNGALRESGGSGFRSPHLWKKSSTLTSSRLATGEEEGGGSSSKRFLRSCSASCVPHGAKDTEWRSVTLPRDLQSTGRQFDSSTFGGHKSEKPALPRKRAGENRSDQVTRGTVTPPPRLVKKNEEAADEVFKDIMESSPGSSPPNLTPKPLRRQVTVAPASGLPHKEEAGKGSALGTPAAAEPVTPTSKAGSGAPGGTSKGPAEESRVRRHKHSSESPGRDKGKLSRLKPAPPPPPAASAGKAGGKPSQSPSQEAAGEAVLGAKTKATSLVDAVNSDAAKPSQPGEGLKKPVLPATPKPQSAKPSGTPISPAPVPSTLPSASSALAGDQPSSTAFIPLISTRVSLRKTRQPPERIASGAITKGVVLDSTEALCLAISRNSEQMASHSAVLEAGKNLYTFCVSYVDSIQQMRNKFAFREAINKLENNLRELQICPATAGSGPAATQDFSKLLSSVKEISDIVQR

As for `ClC(Cn1ncc2c(NCc3ccccc3)ncnc21)c1ccccc1` (stereo not drawn) [Compound 1], the cytotoxic concentration (CC50) at 72 h in series [1] and in series [7] was approximately 87 µM each time. Besides, the CC50 in series [2] was 88.7 ± 5.7 µM; in series [8] (72 h treatment, MTT), 86.9 ± 4.2 µM. In addition, the IC50 in series [3] was 3.6 ± 0.5 µM; in [4], 4.3 ± 0.8 µM; in series [5], 3.4 ± 0.8 µM; in series [6] it was 2900 ± 1100 nM. For the same compound, the “CC50 times higher than IC50” value in [8] (CC50 on FIBRO 2-93 and HaCaT vs IC50 on GBM cells) was 10 times. Besides, the “Metabolite Formation M1” value in series [9] is 14.5%. The “Metabolite Formation M2” value in series [9] (M2 = M + OH) was less than 0.1%. The “Metabolite Formation M3” value in [9] (M3 = M—group bearing NH moiety in R2) was 2.6%. In [9] (M4 = M − Cl + OH (−35 + 17)), the “Metabolite Formation M4” value is on record as 4.5%. Further, in [9], the “Metabolic Stability” value is “lower than 80%”.

`ClC(Cn1ncc2c(NCc3ccccc3)nc(SCCN3CCOCC3)nc21)c1ccccc1` (stereo not drawn) [Compound 9]: the IC50 is 2.9 ± 0.5 µM in series [3], 59.4 ± 3.7 µM in series [4], 58.2 ± 3.4 µM in [5] and more than 100 µM in series [10]. The “Metabolite Formation M1” value in series [9] was “M1 = 5 * %”. For the same compound, the “QP LogS” value in series [11] is −5.6 *. Besides, the “BBB membrane retention (MR%)” value in series [12] is recorded as 6.3%. The Papp at 5 h, 500 µM in [12] came to 2.6 ×10⁻⁶ cm/s.

For the compound `Clc1ccc(C(Cl)Cn2ncc3c(NCCc4ccccc4)ncnc32)cc1` (stereo not drawn) [Compound 10], the Ki in series [13] is 310 ± 20 nM; in [14], 220 ± 30 nM. Moreover, the “Metabolic Stability” value in series [15] came out at 85.9%. Also, the “GI membrane retention (MR%)” value in series [16] (5 h, pH 7.4) came out at 17.2%. Also, the Papp at 5 h, 500 µM in [16] (pH 7.4, PAMPA) was not below 10 ×10⁻⁶ cm/s; in series [12] it was not below 10 ×10⁻⁶ cm/s. Further, the IC50 in series [3] was 6.2 ± 1 µM; in series [4], 46.5 ± 4.1 µM; in series [5], 27.9 ± 2.1 µM; in series [10], 33.9 ± 2.9 µM. Besides, the “BBB membrane retention (MR%)” value in series [12] turned out to be 4.8%.
